Laboratory results: PubChem BioAssay AID330 (DTP/NCI, 2004)
Several values for one entry are separate records, joined by “and”; a condition that tells them apart may be missing. Equal values may be shown once. Inconclusive results and toxic doses are left out. Square brackets hold non-standard residues; d marks the D form. Peptide text beside a SMILES is read from it. * marks the point of attachment. Nle = CCCC[CH](N)C(=O)O; Cbz = O=C(OCc1ccccc1)*

Test system: P388 leukemia ip, CD2F1 mice, survival T/C
Test: NCI In Vivo Anticancer Drug Screen. Data for tumor model P388 Leukemia (intraperitoneal) in CD2F1 (CDF1) mice
Conditions: endpoint: median survival time, higher = longer survival
Outline: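 Mice carrying the transplanted tumor received test compound or vehicle. Survival was recorded in each group, and the value is the treated-group measurement divided by that of the vehicle-treated control group.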

[1] = dose: 60.0 mg/kg/injection, schedule: Q01DX005 (ip), vehicle: Klucel (hydroxypropylcellulose) (HPC)
[2] = dose: 240.0 mg/kg/injection, schedule: Q01DX005 (ip), vehicle: Klucel (hydroxypropylcellulose) (HPC)
[3] = dose: 50.0 mg/kg/injection, schedule: Q01DX005 (ip), vehicle: Klucel (hydroxypropylcellulose) (HPC)
[4] = dose: 100.0 mg/kg/injection, schedule: Q01DX005 (ip), vehicle: Klucel (hydroxypropylcellulose) (HPC)
[5] = dose: 200.0 mg/kg/injection, schedule: Q01DX005 (ip), vehicle: Klucel (hydroxypropylcellulose) (HPC)
[6] = dose: 100.0 mg/kg/injection, schedule: Q04DX003 (ip), vehicle: saline with Tween-80
[7] = dose: 200.0 mg/kg/injection, schedule: Q04DX003 (ip), vehicle: saline with Tween-80
[8] = dose: 400.0 mg/kg/injection, schedule: Q04DX003 (ip), vehicle: saline with Tween-80
[9] = dose: 50.0 mg/kg/injection, schedule: Q01DX009 (ip), vehicle: Klucel (hydroxypropylcellulose) (HPC)
[10] = dose: 100.0 mg/kg/injection, schedule: Q01DX009 (ip), vehicle: Klucel (hydroxypropylcellulose) (HPC)
[11] = dose: 200.0 mg/kg/injection, schedule: Q01DX009 (ip), vehicle: Klucel (hydroxypropylcellulose) (HPC)

Structure (SMILES): COc1ccc2nc3ccccc3c(SCCCCCCSc3c4ccccc4nc4ccc(OC)cc34)c2c1
- T/C (dose: 15.0 mg/kg/injection, schedule: Q01DX005 (ip), vehicle: Klucel (hydroxypropylcellulose) (HPC)): 101 % of control
- T/C (dose: 30.0 mg/kg/injection, schedule: Q01DX005 (ip), vehicle: Klucel (hydroxypropylcellulose) (HPC)): 98 % of control
- T/C [1]: 100 % of control and 89 % of control and 90 % of control
- T/C [2]: 89 % of control

Structure (SMILES): CCC1CN2CCO[Si](CC[Si](C)(C)C)(OCC2)O1 (stereo not drawn)
- T/C [3]: 97 % of control
- T/C [4]: 97 % of control
- T/C [5]: 101 % of control and 104 % of control

Structure (SMILES): CC(=O)N=c1nc(N)nc2n(O)cc(-c3ccccc3)nc1-2
- T/C (dose: 31.25 mg/kg/injection, schedule: Q01DX009 (ip), vehicle: saline with Tween-80): 113 % of control
- T/C (dose: 62.5 mg/kg/injection, schedule: Q01DX009 (ip), vehicle: saline with Tween-80): 99 % of control
- T/C (dose: 125.0 mg/kg/injection, schedule: Q01DX009 (ip), vehicle: saline with Tween-80): 97 % of control

Structure (SMILES): CC(NN(C)C(=S)Nc1ccccc1)c1ccccn1 (stereo not drawn)
- T/C (dose: 50.0 mg/kg/injection, schedule: Q01DX005 (ip), vehicle: saline with Tween-80): 100 % of control
- T/C (dose: 100.0 mg/kg/injection, schedule: Q01DX005 (ip), vehicle: saline with Tween-80): 103 % of control
- T/C (dose: 200.0 mg/kg/injection, schedule: Q01DX005 (ip), vehicle: saline with Tween-80): 109 % of control

Structure (SMILES): CC(CN=C(CC(=O)c1ccc(Br)cc1)c1ccccc1)N=C(CC(=O)c1ccc(Br)cc1)c1ccccc1 (stereo not drawn)
- T/C [6]: 90 % of control
- T/C [7]: 87 % of control
- T/C [8]: 87 % of control

Structure (SMILES): CS(=O)(=O)CC(=N\N)/C(CS(C)(=O)=O)=N/N
- T/C (dose: 60.0 mg/kg/injection, schedule: Q01DX005 (ip), vehicle: saline): 100 % of control
- T/C (dose: 120.0 mg/kg/injection, schedule: Q01DX005 (ip), vehicle: saline): 100 % of control
- T/C (dose: 240.0 mg/kg/injection, schedule: Q01DX005 (ip), vehicle: saline): 108 % of control

Structure (SMILES): CC1(C)CC2([Si](C)(C)C)C(=O)NC(=O)NC12 (stereo not drawn)
- T/C (dose: 12.5 mg/kg/injection, schedule: Q01DX005 (ip), vehicle: Klucel (hydroxypropylcellulose) (HPC)): 105 % of control
- T/C (dose: 25.0 mg/kg/injection, schedule: Q01DX005 (ip), vehicle: Klucel (hydroxypropylcellulose) (HPC)): 99 % of control
- T/C [3]: 99 % of control
- T/C [4]: 97 % of control

Structure (SMILES): N#Cc1c(-c2ccccc2Cl)c(-c2ccccc2Cl)nn(CCO)c1=O
- T/C (dose: 25.0 mg/kg/injection, schedule: Q04DX002 (ip), vehicle: distilled water + Tween-80): 99 % of control
- T/C (dose: 50.0 mg/kg/injection, schedule: Q04DX002 (ip), vehicle: distilled water + Tween-80): 100 % of control
- T/C (dose: 100.0 mg/kg/injection, schedule: Q04DX002 (ip), vehicle: distilled water + Tween-80): 91 % of control
- T/C (dose: 200.0 mg/kg/injection, schedule: Q04DX002 (ip), vehicle: distilled water + Tween-80): 101 % of control

Structure (SMILES): N=c1ccn(O)cc1
- T/C (dose: 6.25 mg/kg/injection, schedule: Q01DX005 (ip), vehicle: saline): 101 % of control
- T/C (dose: 12.5 mg/kg/injection, schedule: Q01DX005 (ip), vehicle: saline): 107 % of control
- T/C (dose: 12.5 mg/kg/injection, schedule: Q01DX009 (ip), vehicle: saline): 111 % of control
- T/C (dose: 25.0 mg/kg/injection, schedule: Q01DX005 (ip), vehicle: saline): 102 % of control
- T/C (dose: 25.0 mg/kg/injection, schedule: Q01DX009 (ip), vehicle: saline): 111 % of control

Structure (SMILES): COc1cccc2c1C(=O)c1c(O)c3c(c(O)c1C2=O)C[C@@](O)(C(C)=O)C[C@@H]3OC1CC(O)C(O)C(C)O1 (stereo partly drawn)
- T/C (dose: 12.5 mg/kg/injection, schedule: Q04DX003 (ip), vehicle: water): 123 % of control
- T/C (dose: 100.0 mg/kg/injection, schedule: Q04DX003 (ip), vehicle: water): 161 % of control
- T/C (dose: 200.0 mg/kg/injection, schedule: Q04DX003 (ip), vehicle: water): 192 % of control

Structure (SMILES): CCN(CC)C/C=C(/C)CCC=C(C)C
- T/C (dose: 5.0 mg/kg/injection, schedule: Q04DX002 (ip), vehicle: saline with Tween-80): 103 % of control
- T/C (dose: 10.0 mg/kg/injection, schedule: Q04DX002 (ip), vehicle: saline with Tween-80): 99 % of control
- T/C (dose: 20.0 mg/kg/injection, schedule: Q04DX002 (ip), vehicle: saline with Tween-80): 95 % of control

Structure (SMILES): S=c1nc[nH]c2c1ncn2C1C=CCCC1 (stereo not drawn)
- T/C [6]: 90 % of control
- T/C (dose: 176.0 mg/kg/injection, schedule: Q01DX009 (ip), vehicle: saline with Tween-80): 100 % of control
- T/C [7]: 90 % of control
- T/C (dose: 264.0 mg/kg/injection, schedule: Q01DX009 (ip), vehicle: saline with Tween-80): 95 % of control
- T/C (dose: 400.0 mg/kg/injection, schedule: Q01DX009 (ip), vehicle: saline with Tween-80): 118 % of control
- T/C [8]: 90 % of control

Structure (SMILES): CN(C)[C@@H]1C(=O)C(C(=O)NCN(CCCl)CCCl)=C(O)[C@@]2(O)C(=O)C3=C(O)c4c(O)cccc4[C@@](C)(O)[C@H]3C[C@@H]12
- T/C (dose: 33.0 mg/kg/injection, schedule: Q04DX003 (ip), vehicle: saline with Tween-80): 159 % of control
- T/C (dose: 44.0 mg/kg/injection, schedule: Q04DX003 (ip), vehicle: saline): 154 % of control
- T/C (dose: 50.0 mg/kg/injection, schedule: Q04DX003 (ip), vehicle: saline with Tween-80): 158 % of control and 172 % of control
- T/C (dose: 66.0 mg/kg/injection, schedule: Q04DX003 (ip), vehicle: saline): 181 % of control
- T/C (dose: 75.0 mg/kg/injection, schedule: Q04DX003 (ip), vehicle: saline with Tween-80): 168 % of control
- T/C [6]: 100 % of control
- T/C (dose: 100.0 mg/kg/injection, schedule: Q04DX003 (ip), vehicle: saline): 209 % of control

Structure (SMILES): NC(C(=O)O)C(C(F)(F)F)C(F)(F)F (stereo not drawn)
- T/C (dose: 50.0 mg/kg/injection, schedule: Q01DX009 (ip), vehicle: saline): 101 % of control
- T/C (dose: 100.0 mg/kg/injection, schedule: Q01DX009 (ip), vehicle: saline): 102 % of control
- T/C (dose: 200.0 mg/kg/injection, schedule: Q01DX009 (ip), vehicle: saline): 114 % of control

Structure (SMILES): Nc1ccc(O)c(N)c1
- T/C (dose: 0.78 mg/kg/injection, schedule: Q01DX009 (ip), vehicle: saline): 99 % of control
- T/C (dose: 1.56 mg/kg/injection, schedule: Q01DX009 (ip), vehicle: saline): 96 % of control
- T/C (dose: 3.12 mg/kg/injection, schedule: Q01DX009 (ip), vehicle: saline): 102 % of control
- T/C (dose: 6.25 mg/kg/injection, schedule: Q01DX009 (ip), vehicle: saline): 105 % of control

Structure (SMILES): COC(=O)c1cc(C#N)n2ccc3ccccc3c12
- T/C [9]: 105 % of control
- T/C [10]: 104 % of control
- T/C [11]: 94 % of control

Structure (SMILES): CN1CCC(/C(=N/O)c2ccccc2)(c2ccccc2)CC1
- T/C (dose: 50.0 mg/kg/injection, schedule: Q01DX005 (ip), vehicle: Klucel + Tween-80): 98 % of control
- T/C (dose: 100.0 mg/kg/injection, schedule: Q01DX005 (ip), vehicle: Klucel + Tween-80): 91 % of control
- T/C (dose: 200.0 mg/kg/injection, schedule: Q01DX005 (ip), vehicle: Klucel + Tween-80): 91 % of control

Structure (SMILES): CN(C)Cc1c(/C=C/C2=[N+](C)c3ccccc3C2(C)C)[nH]c2ccccc12
- T/C [9]: 110 % of control
- T/C [10]: 107 % of control
- T/C [11]: 110 % of control

Structure (SMILES): NSc1nc2ccccc2s1
- T/C [6]: 100 % of control
- T/C [7]: 100 % of control

Structure (SMILES): CCCCC(NC(=O)OCc1ccccc1)C(=O)NC(CCSC)C(=O)O (stereo not drawn) (Cbz-[Nle]-Met-OH; configuration not given here)
- T/C [3]: 96 % of control
- T/C [4]: 111 % of control
- T/C [5]: 101 % of control

Structure (SMILES): CC(=O)N(c1nc2ccccc2s1)N1C(=O)c2ccccc2C1=O
- T/C [1]: 98 % of control
- T/C (dose: 120.0 mg/kg/injection, schedule: Q01DX005 (ip), vehicle: Klucel (hydroxypropylcellulose) (HPC)): 94 % of control
- T/C [2]: 90 % of control

Structure (SMILES): CCOC(=O)C1=NN(c2ccccc2)C(C(N)=O)C1 (stereo not drawn)
- T/C (dose: 60.0 mg/kg/injection, schedule: Q01DX005 (ip), vehicle: saline with Tween-80): 100 % of control
- T/C (dose: 120.0 mg/kg/injection, schedule: Q01DX005 (ip), vehicle: saline with Tween-80): 101 % of control
- T/C (dose: 240.0 mg/kg/injection, schedule: Q01DX005 (ip), vehicle: saline with Tween-80): 101 % of control
